# Assay results: US9901592B2 (priority 2008, dated 2018)
# Like-named read-outs stand apart in the source and are kept apart here.
# Experiments:
# [1] = test system: M. pneumoniae; assay: microbe, parasite or virus in culture; assay type: cell-based; conditions: Mycoplasmoides pneumoniae
# [2] = test system: M. fermentans; assay type: cell-based; conditions: M. fermentans (15 isolates)
# [3] = test system: M. hominis; assay type: cell-based; conditions: M. hominis (13 isolates)
# [4] = test system: U. urealyticum; assay: MIC testing in 10B broth (colour change); assay type: cell-based; conditions: U. urealyticum (10 isolates)
# [5] = test system: S. pneumoniae; assay type: cell-based
# [6] = test system: S. pyogenes; assay type: cell-based
# [7] = test system: S. pyogenes 3029; assay: Intraperitoneal (IP) mouse infection model (ED50); assay type: in vivo; conditions: Streptococcus pyogenes, MAC-R S. pyogenes 3029
# [8] = test system: S. aureus; assay: mouse systemic infection model (PD50); assay type: in vivo
# [9] = test system: S. pneumoniae; assay: mouse systemic infection model (PD50); assay type: in vivo
# [10] = test system: S. pneumoniae; assay: MIC of the strains of the mouse systemic infection model; assay type: cell-based; conditions: Streptococcus pneumoniae
# [11] = test system: S. pyogenes ATCC 8668; assay: mouse subcutaneous abscess model; assay type: in vivo; conditions: 48 hr. post infection
# Protocol: Example. Mouse Subcutaneous Abscess. Bacteria were prepared from an overnight plate culture by re-suspending in saline and adjusting the suspension to a 0.1 OD at 625 nm of a 1:10 dilution. The adjusted bacterial suspension was mixed 1:2 with cyclodextran beads prepared as per package instructions. The right flanks of the mice were shaven and injected subcutaneously with 0.2 ml of the bacterial inoculum. Two hours post infection mice were treated via oral gavage with either test article or control drug. 48 hours post infection, mice were euthanized, abscesses aseptically removed, homogenized, serially diluted and plated on bacterial growth agar. After overnight incubation, colonies were counted and CFUs/gram of abscess were determined.
# Example. Mouse Subcutaneous Abscess˜S. pyogenes ATCC 8668 (Average Log10 CFU/gram of Abscess). Abscess processing 48 hours post infection.
# [12] = test system: M. catarrhalis; assay: microbe, parasite or virus in culture; assay type: cell-based
# [13] = test system: streptococci; assay: organism not typed; assay type: cell-based
# [14] = test system: S. pneumoniae; assay: neutropenic mouse thigh infection; assay type: in vivo; conditions: PO
# [15] = S. pneumoniae (macrolide susceptible)
smiles,measurement,setting,value
"CC[C@H]1OC(=O)[C@@](C)(F)C(=O)[C@H](C)[C@@H](OC2OC(C)CC(N(C)C)C2O)[C@@](C)(OC)C[C@@H](C)C(=O)[C@H](C)[C@H]2N(CCCCn3cc(-c4cccc(N)c4)nn3)C(=O)O[C@]12C (stereo partly shown) [CEM-101, 11-N-4-(3-aminophenyl)-[1,2,3]triazol-1-yl]-butyl}-5-desosaminyl-3-oxo-2-fluoro-erythronolide A,-11,12-cyclic carbamate]",MIC50,[1],0.032 ng/mL
same,MIC Range,[2],≦0.008 μg/mL
same,MIC50,[2]; Mycoplasmopsis fermentans,≤ 8 ng/mL
same,MIC90,[2]; Mycoplasmopsis fermentans,≤ 8 ng/mL
same,MIC Range,[3],2 to 8 ng/mL
same,MIC50,"[3]; Metamycoplasma hominis, read-out: MIC50",4 ng/mL
same,MIC90,"[3]; Metamycoplasma hominis, read-out: MIC90",8 ng/mL
same,MIC Range,[4],4 to 63 ng/mL
same,MIC50,[4]; Ureaplasma urealyticum,8 ng/mL
same,MIC90,[4]; Ureaplasma urealyticum,31 ng/mL
same,single step mutation frequency,"[5]; strain 24 Macrolide-R [erm(B)], 2 × MIC",1.8 × 10^−7
same,single step mutation frequency,"[5]; strain 24 Macrolide-R [erm(B)], 4 × MIC",<5.0 × 10^−9
same,single step mutation frequency,"[5]; strain 24 Macrolide-R [erm(B)], 8 × MIC",<5.0 × 10^−9
same,single step mutation frequency,"[5]; strain 1076 Macrolide-R [erm(B)&mef(A)], 2 × MIC",<2.5 × 10^−8
same,single step mutation frequency,"[5]; strain 1076 Macrolide-R [erm(B)&mef(A)], 4 × MIC",7.5 × 10^−9
same,single step mutation frequency,"[5]; strain 1076 Macrolide-R [erm(B)&mef(A)], 8 × MIC",2.0 × 10^−9
same,single step mutation frequency,"[5]; strain 1077 Macrolide-S, 2 × MIC",<9.1 × 10^−9
same,single step mutation frequency,"[5]; strain 1077 Macrolide-S, 4 × MIC",<9.1 × 10^−9
same,single step mutation frequency,"[5]; strain 1077 Macrolide-S, 8 × MIC",<9.1 × 10^−9
same,single step mutation frequency,"[5]; strain 1635 Macrolide-R [erm(A)], 2 × MIC",1.6 × 10^−8
same,single step mutation frequency,"[5]; strain 1635 Macrolide-R [erm(A)], 4 × MIC",<2.0 × 10^−10
same,single step mutation frequency,"[5]; strain 1635 Macrolide-R [erm(A)], 8 × MIC",<2.0 × 10^−10
same,single step mutation frequency,"[5]; strain 2686 Macrolide-R [L4 mutation], 2 × MIC",<2.5 × 10^−9
same,single step mutation frequency,"[5]; strain 2686 Macrolide-R [L4 mutation], 4 × MIC",<2.5 × 10^−9
same,single step mutation frequency,"[5]; strain 2686 Macrolide-R [L4 mutation], 8 × MIC",<2.5 × 10^−9
same,single step mutation frequency,"[5]; strain 3009 Macrolide-R [23S rRNA mutation], 2 × MIC",<5.9 × 10^−9
same,single step mutation frequency,"[5]; strain 3009 Macrolide-R [23S rRNA mutation], 4 × MIC",<5.9 × 10^−9
same,single step mutation frequency,"[5]; strain 3009 Macrolide-R [23S rRNA mutation], 8 × MIC",<5.9 × 10^−9
same,single step mutation frequency,"[5]; strain 3665 Macrolide-R [mef(A)], 2 × MIC",6.8 × 10^−7
same,single step mutation frequency,"[5]; strain 3665 Macrolide-R [mef(A)], 4 × MIC",1.4 × 10^−7
same,single step mutation frequency,"[5]; strain 3665 Macrolide-R [mef(A)], 8 × MIC",<4.5 × 10^−10
same,single step mutation frequency,"[5]; strain 7127 Macrolide-S [S20N in L4, A105V in L22], 2 × MIC",<2.0 × 10^−10
same,single step mutation frequency,"[5]; strain 7127 Macrolide-S [S20N in L4, A105V in L22], 4 × MIC",<2.0 × 10^−10
same,single step mutation frequency,"[5]; strain 7127 Macrolide-S [S20N in L4, A105V in L22], 8 × MIC",<2.0 × 10^−10
same,single step mutation frequency,"[6]; strain 237 Macrolide-R [L4 mutation], 2 × MIC",<1.3 × 10^−10
same,single step mutation frequency,"[6]; strain 237 Macrolide-R [L4 mutation], 4 × MIC",<1.3 × 10^−10
same,single step mutation frequency,"[6]; strain 237 Macrolide-R [L4 mutation], 8 × MIC",<1.3 × 10^−10
same,single step mutation frequency,"[6]; strain 2011 Macrolide-R [mef(A)], 2 × MIC",3.9 × 10^−8
same,single step mutation frequency,"[6]; strain 2011 Macrolide-R [mef(A)], 4 × MIC",<1.1 × 10^−10
same,single step mutation frequency,"[6]; strain 2011 Macrolide-R [mef(A)], 8 × MIC",<1.1 × 10^−10
same,single step mutation frequency,"[6]; strain 2094 Macrolide-R [erm(A)], 2 × MIC",5.3 × 10^−8
same,single step mutation frequency,"[6]; strain 2094 Macrolide-R [erm(A)], 4 × MIC",2.1 × 10^−9
same,single step mutation frequency,"[6]; strain 2094 Macrolide-R [erm(A)], 8 × MIC",<5.3 × 10^−10
same,single step mutation frequency,"[6]; strain 2132 Macrolide-S, 2 × MIC",<1.0 × 10^−10
same,single step mutation frequency,"[6]; strain 2132 Macrolide-S, 4 × MIC",<1.0 × 10^−10
same,single step mutation frequency,"[6]; strain 2132 Macrolide-S, 8 × MIC",<1.0 × 10^−10
same,single step mutation frequency,"[6]; strain 2368 Macrolide-R [erm(B)], 2 × MIC",<5.9 × 10^−11
same,single step mutation frequency,"[6]; strain 2368 Macrolide-R [erm(B)], 4 × MIC",<5.9 × 10^−11
same,single step mutation frequency,"[6]; strain 2368 Macrolide-R [erm(B)], 8 × MIC",<5.9 × 10^−11
same,ED50,[7],2.5 mg/kg
same,PD50,[8]; MRSA,7.5 mg/kg
same,PD50,[8]; MRSA 300 (CA),9.5 mg/kg
same,PD50,"[8]; S. aureus, single oral dose 1 hr post infection",16.3 mg/kg
same,PD50,[9]; [15],6.0 mg/kg
same,PD50,[9]; S. pneumoniae (mefR),23.2 mg/kg
same,PD50,[9]; S. pneumoniae serotype 19A,6.6 mg/kg
same,MIC,[10]; [15],< 30 ng/mL
same,MIC,"[10]; S. pneumoniae (mefR), read-out: MIC",< 30 ng/mL
same,Average Log10 CFU/gram of Abscess,[11]; 10 mg/Kg,5.35 Log10 CFU/gram
same,Average Log10 CFU/gram of Abscess,[11]; 20 mg/Kg,2.53 Log10 CFU/gram
same,Occurrences at MIC (μg/ml) 1,[12],0
same,Occurrences at MIC (μg/ml) 2,[12],0
same,Occurrences at MIC (μg/ml) 4,[12],0
same,Occurrences at MIC (μg/ml) 8,[12],0
same,Occurrences at MIC (μg/ml) […],[12],0
same,Occurrences at MIC (μg/ml) ≧16,[12],0
same,MIC50,[12]; Moraxella catarrhalis,120 ng/mL
same,MIC90,[12]; Moraxella catarrhalis,120 ng/mL
same,MIC,"[12]; Moraxella catarrhalis, read-out: Occurrences at MIC (μg/ml) 0.03",1 µg/mL
same,MIC,"[12]; Moraxella catarrhalis, read-out: Occurrences at MIC (μg/ml) 0.06",5 µg/mL
same,MIC,"[12]; Moraxella catarrhalis, read-out: Occurrences at MIC (μg/ml) 0.5",1 µg/mL
same,MIC,"[12]; Moraxella catarrhalis, read-out: Occurrences at MIC (μg/ml) ≦0.008",1 µg/mL
same,MIC,[13],60 ng/mL
same,Dose for 1 log10 Reduction from 24 hour controls,"[14]; S. pneumoniae 1629, QD",6.0 mg/Kg
same,Dose for 3 log10 Reduction from 24 hour controls,"[14]; S. pneumoniae 1629, QD",8.0 mg/Kg
same,1 log kill,"[14]; S. pneumoniae 6303, Q6",23.0 mg/Kg
same,EC50,"[14]; S. pneumoniae 6303, Q6",16.7 mg/kg
same,Static dose,"[14]; S. pneumoniae 6303, Q6",20.5 mg/kg
same,1 log kill,"[14]; S. pneumoniae 6303, Q8",23.0 mg/Kg
same,Emax,"[14]; S. pneumoniae 6303, Q8",5.01 log10CFU/thigh
same,Static dose,"[14]; S. pneumoniae 6303, Q8",12.1 mg/kg
same,1 log kill,"[14]; S. pneumoniae 6303, Q12",24.0 mg/Kg
same,Static dose,"[14]; S. pneumoniae 6303, Q12",19.2 mg/kg
same,Emax,"[14]; S. pneumoniae 6303, Q24",6.38 log10CFU/thigh
same,Static dose,"[14]; S. pneumoniae 6303, Q24",8.2 mg/kg
same,Dose for 1 log10 Reduction from 24 hour controls,"[14]; S. pneumoniae 6303, QD",1.2 mg/Kg
same,Dose for 2 log10 Reduction from 24 hour controls,"[14]; S. pneumoniae 6303, QD",3.0 mg/Kg
same,Dose for 3 log10 Reduction from 24 hour controls,"[14]; S. pneumoniae 6303, QD",5.0 mg/Kg
